What all share (assay): DTP human tumour cell line panel, 48 h
Test [1] deals with ACHN.
Test [2] deals with BT-549.
The subject of test [3] is CAKI-1.
For test [4], the system named is DLD-1.
Test [5] concerns DU-145.
Test [6] deals with HCT-15.
The subject of test [7] is IGROV-1.
Test [8] deals with MOLT-4.
The test system of test [9] is NCI-H460.
Test [10] concerns NCI/ADR-RES.
The subject of test [11] is OVCAR-3.
The test system of test [12] is OVCAR-8.
Test [13] has as its system SF-295.
Test [14] relates to SK-MEL-2.
The test system of test [15] is SN12C.
The test system of test [16] is SNB-19.
In test [17] the test system is SNB-75.
For test [18], the system named is SR.
The subject of test [19] is TK-10.
Test [20] has as its system UACC-62.

Molecules are shown by their SMILES.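 Five compound concentrations were applied to cells in 96-well plates for 48 hours; endpoints were derived by simple linear interpolation of the resulting dose-response curve. The concentration for 50% growth inhibition is given as GI50.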 Active and inactive are the calls of the source. Rule as the data show it: active = GI50 up to about 1.1 µM and inactive = higher. Where only a bound is given, the exact number is not on record here.

`O=C1c2c(nc3ccccc3c2-c2ccccc2)CN1Nc1ccccn1`: the GI50 was 43.7 µM (inactive) in test [1]; > 79.1 µM (inactive) in test [2]; 47.3 µM (inactive) in test [3]; > 100 µM (inactive) in [4]; 67.9 µM (inactive) in test [5]; greater than 75.5 µM in test [6]. Further, the GI50 is 81.8 µM (inactive) in test [7]; 71.4 µM (inactive) in test [8]; 40.6 µM (inactive) in test [9]; 43 µM (inactive) in test [10]; 75 µM (inactive) in [11]; 43.5 µM (inactive) in [12]. The GI50 in test [13] is 60.1 µM (inactive); in [14] it was > 100 µM (inactive); in test [15], 53.6 µM (inactive); in test [16], > 86.5 µM (inactive); in test [17], 34.7 µM (inactive); in test [18] it was 58.1 µM (inactive). In addition, the GI50 in [19] and in [20] was > 83 µM (inactive) in each case.
In the case of `O=c1cc(-c2ccccc2)[nH]c2cc(Cl)cc(Cl)c12`, the GI50 in test [1] was 43.9 µM (inactive); in test [3] it was 49 µM (inactive); in test [4], > 100 µM (inactive); in test [6], 6.79 µM; in test [7], 52.7 µM (inactive); in test [8], > 100 µM (inactive). Moreover, the GI50 was 59 µM (inactive) in test [9]; 26.1 µM (inactive) in test [12]; 27 µM (inactive) in test [13]; 46.1 µM (inactive) in test [14]; 69 µM (inactive) in test [15]; 10.3 µM (inactive) in test [17]. In addition, the values for the GI50 in test [18], in [19] and in test [20] were 3.16 µM (inactive), 46.1 µM (inactive) and 23.2 µM (inactive), respectively.
Consider `CN1CC[C@@H](c2c(O)cc(O)c3c(=O)cc(-c4ccccc4Cl)oc23)[C@@H](O)C1`, for which the GI50 was 0.0237 µM (active) in test [1]; 0.0395 µM (active) in test [2]; 0.0343 µM (active) in [3]; 0.0528 µM (active) in test [4]; 0.0411 µM (active) in test [5]; 0.0399 µM in test [6]. The GI50 in test [7] is 0.0304 µM (active); in [8] it was 0.0367 µM (active); in test [9], 0.0352 µM (active); in test [12] it was 0.0401 µM (active); in test [13], 0.0604 µM (active); in test [14], 0.0366 µM (active). The GI50 in test [15] is 0.0471 µM (active); in [16], 0.0407 µM (active); in [17], 0.0251 µM (active); in test [18] it was 0.0263 µM (active); in test [19], 0.0538 µM (active); in [20], 0.0273 µM (active).
As to `CN(C)CC(/C(Cc1ccccc1)=N\NC(=S)NN)c1ccccc1` (stereo not given), the GI50 in test [1] was > 100 µM (inactive); in [3] it was > 100 µM (inactive); in test [4], > 100 µM (inactive); in test [6] it was greater than 100 µM; in [7], > 100 µM (inactive); in test [8], > 100 µM (inactive). Moreover, the GI50 in [9], in test [11], in test [12], in [13], in [15] and in test [16] was > 100 µM (inactive) in each case. The GI50 in [17], in test [18], in test [19] and in test [20] was > 100 µM (inactive) throughout.
For the compound `COC(=O)C1=CCON(c2ccccc2)C1c1ccccc1` (stereo not given), the GI50 in [1] was 57 µM (inactive); in test [3], 42.9 µM (inactive); in [4], 39.1 µM (inactive); in test [6], 38 µM; in test [7], 97.3 µM (inactive); in test [8], 27 µM (inactive). Besides, the GI50 is 48.2 µM (inactive) in test [9]; > 100 µM (inactive) in test [11]; 65.8 µM (inactive) in test [14]; > 10 µM (inactive) in test [15]; 62.8 µM (inactive) in [16]; 49.5 µM (inactive) in [17]. In addition, the figures for the GI50 in test [18], in test [19] and in test [20] were 31.3 µM (inactive), 44.9 µM (inactive) and 49.8 µM (inactive), respectively.
Regarding `CC1CC(=O)C(CC(=O)O)[C@H]1C(C(=O)C(=O)Nc1cc(Cl)ccc1Cl)[N+](=O)[O-]` (stereo not given in full), the GI50 in test [1] is > 100 µM (inactive); in test [3], > 100 µM (inactive); in test [4] it was > 100 µM (inactive); in test [6], greater than 100 µM; in test [7] it was > 100 µM (inactive); in test [9], > 100 µM (inactive). Further, the GI50 in test [11] was > 100 µM (inactive); in test [12], > 100 µM (inactive); in [13], > 100 µM (inactive); in test [15], > 100 µM (inactive); in test [16], > 100 µM (inactive); in test [17], 85.9 µM (inactive). For the same compound, the GI50 in test [18], in test [19] and in test [20] was > 100 µM (inactive) each time.
Consider `O=C(/C=C/c1c(O)ccc2ccccc12)c1cccc(O)c1`, for which the GI50 in test [1] was > 100 µM (inactive); in test [3], > 100 µM (inactive); in test [4] it was > 100 µM (inactive); in test [6] it was greater than 100 µM; in test [7], > 100 µM (inactive); in test [8], 47 µM (inactive). For the same compound, the GI50 was > 100 µM (inactive) in test [9]; > 76.9 µM (inactive) in test [11]; > 100 µM (inactive) in test [12]; > 100 µM (inactive) in [13]; 42.3 µM (inactive) in [14]; > 100 µM (inactive) in test [15]. The GI50 was > 100 µM (inactive) in test [16]; 71.6 µM (inactive) in test [17]; 42.7 µM (inactive) in test [18]; > 100 µM (inactive) in [19]; 28.8 µM (inactive) in test [20].
In the case of `C/C=C/C=C/C=C/C=C/C(=O)O`, the GI50 in test [1] was > 100 µM (inactive); in test [3], > 100 µM (inactive); in [4], > 100 µM (inactive); in test [6], greater than 100 µM; in test [7], > 100 µM (inactive); in [8], > 100 µM (inactive). The GI50 in [9], in test [11], in test [12], in [13], in test [14] and in test [15] was > 100 µM (inactive) throughout. The GI50 in test [16], in test [17], in [18] and in [20] was > 100 µM (inactive) each time.
Regarding `COc1cc(NCC(C#N)C#N)ccc1/N=N/c1ccc(Cl)cc1`, the GI50 was 31.8 µM (inactive) in [1]; 29.4 µM (inactive) in test [4]; 20 µM in [6]; 30.5 µM (inactive) in test [7]; 15.5 µM (inactive) in test [8]; 23.2 µM (inactive) in test [9]. Further, the GI50 in test [11] is 20.6 µM (inactive); in test [12], 29.7 µM (inactive); in test [13], 22.3 µM (inactive); in test [14] it was 21.7 µM (inactive); in test [15], 38.8 µM (inactive); in test [16], 13.1 µM (inactive). For the same compound, the GI50 was 31.6 µM (inactive) in test [17], 12.8 µM (inactive) in test [18], 29.8 µM (inactive) in test [19] and 10.6 µM (inactive) in test [20].
On to `CC(C)C1CNC2N1C(=O)C2(C)OCc1ccccc1` (stereo not given), for which the GI50 was > 100 µM (inactive) in test [1]; > 100 µM (inactive) in test [4]; greater than 100 µM in test [6]; > 100 µM (inactive) in test [7]; 80.5 µM (inactive) in test [8]; > 100 µM (inactive) in test [9]. In addition, the GI50 in test [11], in test [12], in test [13], in [14], in test [15] and in test [16] was > 100 µM (inactive) each time. In addition, the GI50 is 48.2 µM (inactive) in test [17], 78.5 µM (inactive) in test [18], > 100 µM (inactive) in test [19] and > 100 µM (inactive) in test [20].
For `O=C1CCC2(c3ccccc3)OCC([C@@H](O)c3ccccc3)N12` (stereo not given in full), the GI50 in test [1] was > 100 µM (inactive); in test [3], > 100 µM (inactive); in test [4], > 100 µM (inactive); in [6], greater than 100 µM; in test [7], > 100 µM (inactive); in [9], > 100 µM (inactive). Besides, the GI50 in test [11], in test [12], in test [13], in test [14], in [15] and in [16] was > 100 µM (inactive) each time. Also, the GI50 in test [17], in test [18], in [19] and in test [20] was > 100 µM (inactive) each time.
As for `Clc1ccc2[nH]c(CCSCCc3nc4ccc(Cl)cc4[nH]3)nc2c1`, the GI50 in test [1] is 2.25 µM (inactive); in [3] it was 4.55 µM (inactive); in test [4], 15.4 µM (inactive); in test [6], 13.2 µM; in test [7], 10.2 µM (inactive); in [8] it was 3.7 µM (inactive). The GI50 in test [9] is 15.1 µM (inactive); in test [12], 14.2 µM (inactive); in [13], 7.62 µM (inactive); in test [14], 15.3 µM (inactive); in [15], 14.4 µM (inactive); in test [17], 19.5 µM (inactive). Besides, the GI50 was 0.181 µM (active) in [18], 10.3 µM (inactive) in test [19] and 5.64 µM (inactive) in [20].

A word on the GI50: it is the concentration at which growth is held to half of that of the control.
